# Patent US10206893B2, “Immunoregulatory agents” (Flexus Biosciences, Inc., priority 2014, dated 2019)
# Target: T1, indoleamine 2,3-dioxygenase (IDO) (Homo sapiens, UniProt P14902)
# T1 construct: host or cells: HeLa cells, IDO induced with IFNγ (25 ng/mL)
# Experiment: HeLa cell-based indoleamine 2,3-dioxygenase (IDO) assay (IFNγ-induced kynurenine production)
# Conditions: Tables 3-7; compounds shown only as drawings; read-out: Potency (IDO IC50)
# Description: Assessment of inhibitor activity in HeLa cell-based indoleamine 2,3-dioxygenase (IDO) assay.
# HeLa (ATCC® CCL-2) cells were obtained from the ATCC® and cultured in Dulbecco's Modified Eagle Medium supplemented with 4.5 g/L glucose, […] (#10-013-CV, Corning), 2 mM L-alanyl-L-glutamine dipeptide (#35050-061, Gibco), 100 U/mL penicillin, 100 μg/mL streptomycin (#SV30010, HyClone) and 10% fetal bovine serum (#SH30071.03 HyClone). Cells were maintained in a humidified incubator at 37° C. in 5% CO2.
# IDO activity was assessed as a function of kynurenine production as follows: HeLa cells were seeded in a 96-well culture plate at a density of 5,000 cells/well and allowed to equilibrate overnight. After 24 hours, the media was aspirated and replaced with media containing IFNγ (#285-IF/CF, R&D Systems) at a final concentration of 25 ng/mL. A serial dilution of each test compound was added to the cells in a total volume of 200 μL of culture medium. After a further 48 hour incubation, 170 μL of supernatant was transferred from each well to a fresh 96-well plate. 12.1 μL of 6.1N trichloroacetic acid (#T0699, Sigma-Aldrich) was added to each well and mixed, followed by incubation at 65° C. for 20 minutes to hydrolyze N-formylkynurenine, the product of indoleamine 2,3-dioxygenase, to kynurenine. The reaction mixture was then centrifuged for 10 mins at 500×g to sediment the precipitate. 100 μL of the supernatant was transferred from each well to a fresh 96-well plate. 100 μl of 2% (w/v) p-dimethylaminobenzaldehyde (#15647-7, Sigma-Aldrich) in acetic acid (#A6283, Sigma-Aldrich) was added to each well mixed and incubated at room temperature for 20 mins. Kynurenine concentrations were determined by measuring absorbance at 480 nm and calibrating against an L-kynurenine (#K8625, Sigma-Aldrich) standard curve using a SPECTRAMAX® M2e microplate reader (Molecular Devices). The percentage activity at each inhibitor concentration was determined and IC50 values assessed using nonlinear regression.
# Activity for compounds described herein is provided in Tables 3-7, wherein potency levels are provided as follows: (Potency: IDO IC50: A<0.1 μM; B<1 μM; C<10 μM)
# T1 sequence (P14902 whole entry): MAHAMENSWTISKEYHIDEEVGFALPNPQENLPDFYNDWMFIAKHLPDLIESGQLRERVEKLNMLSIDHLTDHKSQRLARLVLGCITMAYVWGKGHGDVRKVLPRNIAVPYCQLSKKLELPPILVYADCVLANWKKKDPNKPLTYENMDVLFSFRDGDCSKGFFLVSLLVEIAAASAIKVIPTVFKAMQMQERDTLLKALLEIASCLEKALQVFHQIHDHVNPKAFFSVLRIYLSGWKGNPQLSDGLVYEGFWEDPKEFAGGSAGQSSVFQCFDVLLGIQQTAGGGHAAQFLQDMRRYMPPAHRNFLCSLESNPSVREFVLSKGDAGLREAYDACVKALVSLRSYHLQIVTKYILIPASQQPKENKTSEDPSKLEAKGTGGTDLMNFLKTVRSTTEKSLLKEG
row,SMILES,IC50 [nM]
1,O=C(Nc1ccc(Cl)cc1)[C@H]1CC[C@@H](Cc2ccccc2)CC1,< 2000
2,O=C(Nc1ccc(Cl)cc1)[C@H]1CC[C@H](Cc2ccccc2)CC1,< 2000
3,N#Cc1ccc(NC(=O)[C@H]2CC[C@@H](Cc3ccccc3)CC2)cc1,< 2000
4,N#Cc1ccc(NC(=O)[C@H]2CC[C@H](Cc3ccccc3)CC2)cc1,< 2000
5,O=C(Nc1ccc(F)cc1)[C@H]1CC[C@@H](Cc2ccccc2)CC1,< 2000
6,O=C(Nc1ccc(F)cc1)[C@H]1CC[C@H](Cc2ccccc2)CC1,< 2000
7,COc1ccc(NC(=O)[C@H]2CC[C@@H](Cc3ccccc3)CC2)cc1,< 2000
8,COc1ccc(NC(=O)[C@H]2CC[C@H](Cc3ccccc3)CC2)cc1,< 2000
9,COc1ccc(C2CCC(CC(=O)NCc3ccccc3)CC2)cc1 (stereo not shown),< 2000
10,COc1ccc([C@H]2CC[C@@H](CC(=O)NCc3ccccc3)CC2)cc1,< 250
11,N#Cc1ccc(C(=O)NC[C@H]2CC[C@@H](c3ccccc3)CC2)cc1,< 250
12,O=S(=O)(NC[C@H]1CC[C@@H](c2ccccc2)CC1)c1ccc(Cl)cc1,< 250
13,N#Cc1cccc(C(=O)NC[C@H]2CC[C@@H](c3ccccc3)CC2)c1,< 50
14,O=C(c1ccc(Cl)cc1)N1CCC(Cc2ccccc2)CC1,< 2000
15,O=C(NC[C@H]1CC[C@@H](c2ccccc2)CC1)c1ccc(Cl)cc1,< 250
16,O=C(c1cccc(Cl)c1)N1CCC(Cc2ccccc2)CC1,< 2000
17,O=C(NC[C@H]1CC[C@@H](c2ccccc2)CC1)c1cccc(Cl)c1,< 50
18,O=C(NC[C@H]1CC[C@@H](c2ccccc2)CC1)c1ccc(F)cc1,< 50
19,COc1ccc([C@H]2CC[C@@H](CCNc3ccc(Cl)cc3)CC2)cc1,< 250

row,SMILES,IC50 [nM]
1,COc1ccc([C@H]2CC[C@H](CCNc3ccc(Cl)cc3)CC2)cc1,< 2000
2,O=C(Nc1ccc(Cl)cc1)O[C@H]1CC[C@@H](c2ccccc2)C1,< 2000
3,O=C(Nc1ccc(F)cc1)OC[C@H]1CC[C@@H](c2ccccc2)CC1,< 2000
4,O=C(Nc1ccc(F)cc1)N[C@H]1CC[C@H](c2ccccc2)CC1,< 50
5,O=C(Nc1cccc(Cl)c1)N[C@H]1CC[C@@H](c2ccccc2)CC1,< 250
6,O=C(Nc1ccc(Cl)cc1)N[C@H]1CC[C@H](c2ccccc2)CC1,< 50
7,O=C(Cc1ccc(Cl)cc1)N[C@H]1CC[C@@H](c2ccccc2)CC1,< 2000
8,O=C(Nc1cccc(Cl)c1)N[C@H]1CC[C@H](c2ccccc2)CC1,< 50
9,O=C(Nc1ccc(Cl)cc1)N[C@H]1CC[C@@H](c2ccccc2)CC1,< 250
10,O=C(Cc1cccc(Cl)c1)N[C@H]1CC[C@H](c2ccccc2)CC1,< 50
11,O=C(Nc1ccc(Cl)cc1)N1CCC(Oc2ccccc2)CC1,< 2000
12,O=C(Nc1ccc(Cl)cc1)C1CCC(Oc2ccccc2)CC1 (stereo not shown),< 250
13,COc1ccc([C@H]2CC[C@H](NC(=O)Cc3ccc(Cl)cc3)CC2)cc1,< 250
14,O=S(=O)(CC1CCC(c2ccnc3ccccc23)CC1)Nc1ccc(Cl)cc1 (stereo not shown),< 50
15,COc1ccc(C2CCC(CC(Nc3ccc(F)cc3)C(F)(F)F)CC2)cc1 (stereo not shown),< 50
16,COc1ccc(C2CCC(CC(Nc3ccc(Cl)cc3)C(F)(F)F)CC2)cc1 (stereo not shown),< 50
17,N#Cc1ccc(CC(=O)N[C@H]2CC[C@H](c3ccccc3)CC2)cc1,< 250
18,CC(C(=O)N[C@H]1CC[C@H](c2ccccc2)CC1)c1ccc(C#N)cc1 (stereo partly shown),< 50
19,O=C(Cc1ccc(Cl)cc1)N[C@H]1CC[C@H](c2ccnc3ccccc32)CC1,< 250

# Target: T2, human IDO1 (Homo sapiens, UniProt P14902)
# T2 construct: expressed in transfected cells
# Experiment: IDO inhibition assay in HEK293 cells stably expressing human IDO1 (kynurenine, Ehrlich reagent)
# Type: cell-based
# Conditions: 20 hours incubation, read-out: HEK Human IDO-1 Bio Activity
# Description: They were cultured in medium (DMEM with 10% FBS) containing 1 mg/ml G418 for two weeks.
# The human IDO1/HEK293 cells were seeded at 10,000 cells per 50 μL per well with RPMI/phenol red free media contains 10% FBS in a 384-well black wall clear bottom tissue culture plate (Matrix Technologies LLC) 100 nL of certain concentration of compound was then added to each well using ECHO liquid handling systems. The cells were incubated for 20 hours in 37° C. incubator with 5% CO2.
# The compound treatments were stopped by adding trichloroacetic acid (Sigma-Aldrich) to a final concentration at 0.2%. The cell plate was further incubated at 50° C. for 30 minute. The equal volume supernatant (20 μL) and 0.2% (w/v) Ehrlich reagent (4-dimethylaminobenzaldehyde, Sigma-Aldrich) in glacial acetic acid were mixed in a new clear bottom 384-well plate. This plate was then incubated at room temperature for 30 minute. The absorbance at 490 nm was measured on Envision plate reader.
# T2 sequence (P14902 whole entry): as above
row,SMILES,IC50 [nM]
1,"CC(NC(=O)c1ccc(Cl)cc1)C1CCC(c2ccncc2F)CC1 (single isomer, unassigned) [Example 161a, 4-chloro-N-(1-(4-(3-fluoropyridin-4-yl)cyclohexyl)ethyl)benzamide]",< 2000
2,"CC(NC(=O)c1ccc(Cl)cc1)C1CCC(c2ccncc2F)CC1 (single isomer, unassigned) [Example 161b, 4-chloro-N-(1-(4-(3-fluoropyridin-4-yl)cyclohexyl)ethyl)benzamide]",< 50
3,"CC(NC(=O)c1ccc(Cl)cc1)C1CCC(c2ccncc2F)CC1 (single isomer, unassigned) [Example 161c, 4-chloro-N-(1-(4-(3-fluoropyridin-4-yl)cyclohexyl)ethyl)benzamide]",< 250
4,N#Cc1ccc(NC(=O)N[C@H]2CC[C@H](c3ccnc4ccc(F)cc43)CC2)cc1 [Example 121],< 250
5,CCC(NC(=O)c1ccc(-c2ccccc2)cc1)[C@H]1CC[C@@H](c2cnc3ccccc3c2)CC1 (stereo partly shown) [Example 200],< 250

# More lines, now with the values ahead:
row,IC50 [nM],SMILES
1,< 50,"Cc1c(C2CCC(C(C)NC(=O)c3ccc(Cl)cc3)CC2)ccnc1F (single isomer, unassigned) [Example 158b, 4-chloro-N-(1-(4-(2-fluoro-3-methylpyridin-4-yl)cyclohexyl)ethyl)benzamide]"
2,< 50,"Cc1c(C2CCC(C(C)NC(=O)c3ccc(Cl)cc3)CC2)ccnc1F (single isomer, unassigned) [Example 158c, 4-chloro-N-(1-(4-(2-fluoro-3-methylpyridin-4-yl)cyclohexyl)ethyl)benzamide]"
3,< 50,"Cc1c(C2CCC(C(C)NC(=O)c3ccc(Cl)cc3)CC2)ccnc1F (single isomer, unassigned) [Example 158d, 4-chloro-N-(1-(4-(2-fluoro-3-methylpyridin-4-yl)cyclohexyl)ethyl)benzamide]"
4,< 2000,"Cc1c(C2CCC(C(C)NC(=O)c3ccc(Cl)cc3)CC2)ccnc1F (single isomer, unassigned) [Example 158e, 4-chloro-N-(1-(4-(2-fluoro-3-methylpyridin-4-yl)cyclohexyl)ethyl)benzamide]"
5,< 250,"Cc1nccc(C2CCC(C(C)NC(=O)c3ccc(Cl)cc3)CC2)c1C (single isomer, unassigned) [Example 159b, 4-chloro-N-(1-(4-(2,3-dimethylpyridin-4-yl)cyclohexyl)ethyl)benzamide]"
6,< 50,"Cc1nccc(C2CCC(C(C)NC(=O)c3ccc(Cl)cc3)CC2)c1C (single isomer, unassigned) [Example 159c, 4-chloro-N-(1-(4-(2,3-dimethylpyridin-4-yl)cyclohexyl)ethyl)benzamide]"
7,< 50,"Cc1nccc(C2CCC(C(C)NC(=O)c3ccc(Cl)cc3)CC2)c1C (single isomer, unassigned) [Example 159d, 4-chloro-N-(1-(4-(2,3-dimethylpyridin-4-yl)cyclohexyl)ethyl)benzamide]"
8,< 2000,"Cc1nccc(C2CCC(C(C)NC(=O)c3ccc(Cl)cc3)CC2)c1C (single isomer, unassigned) [Example 159e, 4-chloro-N-(1-(4-(2,3-dimethylpyridin-4-yl)cyclohexyl)ethyl)benzamide]"
9,< 2000,"Cc1cnccc1C1CCC(C(C)NC(=O)c2ccc(Cl)cc2)CC1 (single isomer, unassigned) [Example 160b, 4-chloro-N-(1-(4-(3-methylpyridin-4-yl)cyclohexyl)ethyl)benzamide]"
10,< 2000,"Cc1cnccc1C1CCC(C(C)NC(=O)c2ccc(Cl)cc2)CC1 (single isomer, unassigned) [Example 160c, 4-chloro-N-(1-(4-(3-methylpyridin-4-yl)cyclohexyl)ethyl)benzamide]"
11,< 250,"Cc1cnccc1C1CCC(C(C)NC(=O)c2ccc(Cl)cc2)CC1 (single isomer, unassigned) [Example 160d, 4-chloro-N-(1-(4-(3-methylpyridin-4-yl)cyclohexyl)ethyl)benzamide]"
12,< 50,"Cc1cnccc1C1CCC(C(C)NC(=O)c2ccc(Cl)cc2)CC1 (single isomer, unassigned) [Example 160e, 4-chloro-N-(1-(4-(3-methylpyridin-4-yl)cyclohexyl)ethyl)benzamide]"
